Laboratory results from US10072005B2, “4-azaindole derivatives” (EISAI R&D MANAGEMENT CO., LTD., priority 2013, dated 2018).

What was measured:
male Crlj: WI rats = experiment: Morris Water Maze Test in Ibotenic Acid-Induced Learning Disability Model; type: in vivo, rat; conditions: for Swimming time in 4th quadrant / Frequency of entry into platform area: probe trial
Experimental: Ibotenic acid at 5 μg/0.5 μL was injected into both basal nuclei of 8-week old male Crlj: WI rats, and a Morris water maze test was performed 10-14 days after ibotenic acid injection. It has been reported that rats in which basal forebrain was lesioned by ibotenic acid injection show learning disability in the Morris water maze test. (Pharmacopsychiat, 1999, 32, 242-247). The test is considered a model of spatial learning and memory.
Learning trials were performed twice a day at an interval of 3 hours for 4 days (8 times in total), and probe trials were performed once the day after completion of the learning trials. Each test compound was dissolved in a 0.5% methylcellulose in water and orally administered 1 hour before the first trial on each day of the learning trials and 1 hour before the trial on the day of the probe trials.
A colorless clear acrylic platform (diameter: about 12 cm, height: about 30 cm) and a gray vinyl chloride circular pool (diameter: about 148 cm, height: about 44 cm), which was filled with water (temperature: 17-18° C.) up to a height of about 32 cm so that the platform was fully immersed in water, were used as the test device. Four quadrants were prepared at the bottom of the pool, and the platform was set at the center of 1 of the 4 quadrants (about 37 cm from the center of the pool). A light bulb was placed near the quadrant with the platform as a spatial cue.
In learning trials, the animal was put into water and goal latency and swimming distance to reach the platform were measured (measurement time: 90 seconds at the longest) by a video image behavioral analysis device (Etho Vision XT, Noldus Information Technology Inc.). When an animal reached the platform within 90 seconds and stayed on the platform for 30 seconds, it was judged that the animal recognized the position of the platform, and the measurement was finished.
In probe trials, the platform was removed from the pool. The animal was put into water, and the swimming time in the quadrant where the platform had been located in the learning trials and the frequency of entry into the platform area where the platform had been located in the learning trials were measured by Etho Vision XT.
Each value was shown as an average and a standard error (n=10). The statistical significance between a control group and a vehicle group was analyzed by the independent t-test. The statistical significance between the vehicle group and each sample group was analyzed by one-way analysis of variance and then by Dunnett's multiple comparison test. The significance level was set to 5% on both sides. […] The analysis was carried out by using SAS system (SAS Institute Japan Ltd.).

mAChR M5 = mAChR M5 (Homo sapiens (Human), UniProt P08912); experiment: In vitro cellular calcium flux assay, PAM, NAM and agonist modes, mAChR M5; type: cell-based
Experimental: (§1) Baby hamster kidney cells stably expressing human or rat mAChR M1 to M5 were utilised for primary and selectivity profiling activities. mAChR M2 and M4 cell lines also stably expressed the chimeric Gαqi5 G-protein.
(§2) Human mAChR M1, M3, M5 and rat M1 cells were grown in low glucose Dulbecco's Modified Eagle's Medium (DMEM) medium plus heat inactivated 10% fetal bovine serum (HI FBS) and 500 μg/ml hygromycin B^1. Human mAChR M2 and M4 cells were maintained as above with^2 the addition of 500 μg/ml G418 to the media. Cells were maintained in culture at 37° C./5% CO2 and passaged twice weekly by treatment with 0.05% Trypsin/EDTA detachment solution, centrifugation (200 g, 5 min) and re-suspension in fresh media. Following cell expansion, cells were cryopreserved at −80° C. by treatment with 0.05% Trypsin/EDTA detachment solution, centrifugation (200 g, 5 min) and re-suspension of the pellet in freezing media (90% HI FBS/10% DMSO^3) at 15E6 cells/ml^4.
(§3) Prior to assaying, cells were prepared by thawing at 37° C. in a water bath, centrifugation (200 g, 5 min) and re-suspension of the pellet in fresh media. 15000 cells per well were seeded in black, clear bottomed 384-well Greiner Bio-One plates in plating medium (DMEM/10% HI FBS) and incubated overnight at 37 C/5% CO2.
(§4) On the day of the assay, media was removed from each well and replaced with 50 μl^5 assay buffer (HBSS with 20 mM HEPES and 2.5 mM Probenecid) containing the calcium indicator, Calcium 4 (Molecular Devices). Cells were then incubated at 37° C./5% CO2 for 30 min and at room temperature.
(§5) Compound preparation was carried out by generation of 11-point, 1 in 3 serial dilution concentration response curves in 100% DMSO. Compound was then diluted 1 in 65^6 with assay buffer (HBSS with 20 mM HEPES and 2.5 mM Probenecid) prior to the addition of 10 ul^7 to the cells using a Tetra fluorometric imaging plate reader (Molecular Devices)^8. Compound driven increases in intracellular calcium flux was measured as an increase in fluorescence (494Ex, 516Em)^9.
(§6) Positive allosteric modulator pEC50 values and antagonist pIC50 values for each compound were then determined. […] The points of modification and the alternate reagents, concentrations or equipment employed in these examples were: ^1200 μg/ml hygromycin B; ^2G418 not added; ^3CELLBANKER 1; ^410E6; ^5 40 μl; ^6 1 in 99; ^7 20 μl; ^8FDSS6000 (Hamamatsu Photonics); ^9(480Ex, 540Em); ^10Spotfire (TIBCO).
(§7) Certain compounds were tested in PAM, NAM and agonist modes against mAChR M2, M3, M4 and M5.

mAChR M3 = mAChR M3 (Homo sapiens (Human), UniProt P20309); experiment: In vitro cellular calcium flux assay, PAM, NAM and agonist modes, mAChR M3; type: cell-based
Experimental: as §1, §2, §3, §4, §5, §6, §7

mAChR M4 = mAChR M4 (Homo sapiens (Human), UniProt P08173); experiment: In vitro cellular calcium flux assay, PAM, NAM and agonist modes, mAChR M4; type: cell-based
Experimental: as §1, §2, §3, §4, §5, §6, §7

Sequence of mAChR M4 (P08173 whole entry): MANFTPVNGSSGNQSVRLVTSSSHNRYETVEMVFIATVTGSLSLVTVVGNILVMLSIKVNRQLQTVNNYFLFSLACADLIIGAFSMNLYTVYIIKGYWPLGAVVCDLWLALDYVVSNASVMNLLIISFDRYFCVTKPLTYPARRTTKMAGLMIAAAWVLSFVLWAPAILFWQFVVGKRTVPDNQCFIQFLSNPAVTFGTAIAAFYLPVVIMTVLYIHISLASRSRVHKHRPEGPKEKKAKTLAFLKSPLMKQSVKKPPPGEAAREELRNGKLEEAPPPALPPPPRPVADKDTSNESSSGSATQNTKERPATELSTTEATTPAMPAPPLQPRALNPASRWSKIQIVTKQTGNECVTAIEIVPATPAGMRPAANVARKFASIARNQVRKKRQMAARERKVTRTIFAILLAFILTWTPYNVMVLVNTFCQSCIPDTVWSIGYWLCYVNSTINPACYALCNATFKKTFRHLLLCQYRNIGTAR
Sequence of mAChR M5 (P08912 whole entry): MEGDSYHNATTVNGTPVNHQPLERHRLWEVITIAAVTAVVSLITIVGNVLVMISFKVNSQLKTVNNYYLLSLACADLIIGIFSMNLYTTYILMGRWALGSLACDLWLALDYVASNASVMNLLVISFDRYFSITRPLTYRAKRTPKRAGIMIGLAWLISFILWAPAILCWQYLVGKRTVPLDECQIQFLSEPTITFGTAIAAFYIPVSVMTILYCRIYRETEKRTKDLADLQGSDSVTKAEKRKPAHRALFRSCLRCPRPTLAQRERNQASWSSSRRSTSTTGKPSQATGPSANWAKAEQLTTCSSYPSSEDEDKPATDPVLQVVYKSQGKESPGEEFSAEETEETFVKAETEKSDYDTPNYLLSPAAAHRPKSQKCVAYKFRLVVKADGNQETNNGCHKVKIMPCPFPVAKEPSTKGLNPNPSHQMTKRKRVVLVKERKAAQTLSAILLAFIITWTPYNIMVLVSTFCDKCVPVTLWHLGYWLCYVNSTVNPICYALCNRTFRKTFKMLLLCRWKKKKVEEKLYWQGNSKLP
Sequence of mAChR M3 (P20309 whole entry, looked up): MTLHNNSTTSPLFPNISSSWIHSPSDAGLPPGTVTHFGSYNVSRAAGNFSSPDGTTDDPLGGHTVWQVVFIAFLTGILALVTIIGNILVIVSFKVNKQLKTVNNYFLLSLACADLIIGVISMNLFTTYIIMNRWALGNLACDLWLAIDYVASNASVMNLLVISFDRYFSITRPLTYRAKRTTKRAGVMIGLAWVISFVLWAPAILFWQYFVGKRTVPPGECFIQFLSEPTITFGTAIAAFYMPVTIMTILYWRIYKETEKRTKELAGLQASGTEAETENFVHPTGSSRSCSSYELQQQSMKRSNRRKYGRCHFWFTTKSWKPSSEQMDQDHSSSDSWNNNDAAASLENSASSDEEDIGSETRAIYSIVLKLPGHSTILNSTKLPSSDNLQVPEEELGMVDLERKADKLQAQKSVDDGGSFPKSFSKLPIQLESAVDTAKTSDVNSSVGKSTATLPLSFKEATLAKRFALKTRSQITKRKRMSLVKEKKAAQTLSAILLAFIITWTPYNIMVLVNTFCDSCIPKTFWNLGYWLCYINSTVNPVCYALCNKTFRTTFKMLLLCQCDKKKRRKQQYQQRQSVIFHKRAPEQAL

## O=C(N[C@H]1CCCC[C@@H]1O)c1cn(Cc2ccc(F)cc2)c2cccnc12 [Example 5, 1-(4-Fluorobenzyl)-N-((1S,2S)-2-hydroxycyclohexyl)-1H-pyrrolo[3,2-b]pyridine-3-carboxamide]
Male Crlj: WI rats; Trial 1, 0.1 mg/kg p.o.
  Goal latency: [90 ± 0.00] sec.
  Swimming distance: [2152.96 ± 91.73] cm
Male Crlj: WI rats; Trial 1, 0.3 mg/kg p.o.
  Goal latency: [90 ± 0.00] sec.
  Swimming distance: [2400.75 ± 122.49] cm
Male Crlj: WI rats; Trial 2, 0.1 mg/kg p.o.
  Goal latency: [90 ± 0.00] sec.
  Swimming distance: [2353.99 ± 145.71] cm
Male Crlj: WI rats; Trial 2, 0.3 mg/kg p.o.
  Goal latency: [89.47 ± 0.53] sec.
  Swimming distance: [2533.19 ± 86.87] cm
Male Crlj: WI rats; Trial 3, 0.1 mg/kg p.o.
  Goal latency: [78.81 ± 8.1] sec.
  Swimming distance: [1884.79 ± 174.8] cm
Male Crlj: WI rats; Trial 3, 0.3 mg/kg p.o.
  Goal latency: [75.08 ± 7.99] sec.
  Swimming distance: [1945.42 ± 189.94] cm
Male Crlj: WI rats; Trial 4, 0.1 mg/kg p.o.
  Goal latency: [79.59 ± 7.36] sec.
  Swimming distance: [1822.32 ± 206.29] cm
Male Crlj: WI rats; Trial 4, 0.3 mg/kg p.o.
  Goal latency: [60.53 ± 12.15]# sec.
  Swimming distance: [1592.82 ± 308.21] cm
Male Crlj: WI rats; Trial 5, 0.1 mg/kg p.o.
  Goal latency: [83.06 ± 4.7] sec.
  Swimming distance: [1918.78 ± 132.12] cm
Male Crlj: WI rats; Trial 5, 0.3 mg/kg p.o.
  Goal latency: [53.99 ± 10.18]## sec.
  Swimming distance: [1417.94 ± 229.44]## cm
Male Crlj: WI rats; Trial 6, 0.1 mg/kg p.o.
  Goal latency: [66.13 ± 12.22] sec.
  Swimming distance: [1464.97 ± 308.91] cm
Male Crlj: WI rats; Trial 6, 0.3 mg/kg p.o.
  Goal latency: [33.09 ± 9.78]## sec.
  Swimming distance: [876.2 ± 203.14]## cm
Male Crlj: WI rats; Trial 7, 0.1 mg/kg p.o.
  Goal latency: [76.97 ± 8.11] sec.
  Swimming distance: [1839.16 ± 221.78] cm
Male Crlj: WI rats; Trial 7, 0.3 mg/kg p.o.
  Goal latency: [50.1 ± 10.02]## sec.
  Swimming distance: [1329.27 ± 236.21]## cm
Male Crlj: WI rats; Trial 8, 0.1 mg/kg p.o.
  Goal latency: [67.24 ± 10.13] sec.
  Swimming distance: [1492.52 ± 260.05] cm
Male Crlj: WI rats; Trial 8, 0.3 mg/kg p.o.
  Goal latency: [38.02 ± 10.74]## sec.
  Swimming distance: [1020.57 ± 253.94]## cm
Male Crlj: WI rats; 0-30 sec., 0.1 mg/kg p.o.
  Swimming time in 4th quadrant: [8.90 ± 1.02]# sec.
Male Crlj: WI rats; 0-30 sec., 0.3 mg/kg p.o.
  Swimming time in 4th quadrant: [7.19 ± 1.11] sec.
Male Crlj: WI rats; 0.1 mg/kg p.o.
  Frequency of entry into platform area: [0.9 ± 0.3]
Male Crlj: WI rats; 0.3 mg/kg p.o.
  Frequency of entry into platform area: [1.7 ± 0.5]##
Male Crlj: WI rats; 30-60 sec., 0.1 mg/kg p.o.
  Swimming time in 4th quadrant: [9.41 ± 1.80]# sec.
Male Crlj: WI rats; 30-60 sec., 0.3 mg/kg p.o.
  Swimming time in 4th quadrant: [8.48 ± 1.25] sec.
Male Crlj: WI rats; 60-90 sec., 0.1 mg/kg p.o.
  Swimming time in 4th quadrant: [7.74 ± 0.85] sec.
Male Crlj: WI rats; 60-90 sec., 0.3 mg/kg p.o.
  Swimming time in 4th quadrant: [7.49 ± 1.37] sec.
Male Crlj: WI rats; Total, 0.1 mg/kg p.o.
  Swimming time in 4th quadrant: [26.05 ± 2.03]## sec.
Male Crlj: WI rats; Total, 0.3 mg/kg p.o.
  Swimming time in 4th quadrant: [23.16 ± 2.97] sec.
mAChR M5
  EC50: > 10 µM
mAChR M3
  EC50: > 10 µM
mAChR M4
  EC50: > 10 µM
